Data on one compound can be found in paper PMC3179684 (Toxicological Sciences, 2011).

Molecules are shown by their SMILES. Entries after “also recorded” stand apart in the source; their conditions may differ. Where two headings read alike, the source gives them in different places.

The test system of data set [1] is GSH levels in the livers. The following applies: Fischer rats exposed for 4 h to 1200 ppm EO; ref McKelvey and Zemaitis (1986); cited from earlier work.
The test system of data set [2] is glutathione S-transferase (GST). In words: GST-mediated EO elimination in rat lung cytosol. The format is in vitro ADME, Fischer 344 rats. The following applies: taking a Km of 9 mmol/l.
Data set [3] has the same test system. In words: GST-mediated EO elimination in mouse lung cytosol. The format is in vitro ADME, B6C3F1 mice. To be noted: taking a Km of 9 mmol/l.
The target of data set [4] is T1, epoxide hydrolase (EH) (Rattus norvegicus, UniProt P07687).
T1 sequence (P07687 1-455): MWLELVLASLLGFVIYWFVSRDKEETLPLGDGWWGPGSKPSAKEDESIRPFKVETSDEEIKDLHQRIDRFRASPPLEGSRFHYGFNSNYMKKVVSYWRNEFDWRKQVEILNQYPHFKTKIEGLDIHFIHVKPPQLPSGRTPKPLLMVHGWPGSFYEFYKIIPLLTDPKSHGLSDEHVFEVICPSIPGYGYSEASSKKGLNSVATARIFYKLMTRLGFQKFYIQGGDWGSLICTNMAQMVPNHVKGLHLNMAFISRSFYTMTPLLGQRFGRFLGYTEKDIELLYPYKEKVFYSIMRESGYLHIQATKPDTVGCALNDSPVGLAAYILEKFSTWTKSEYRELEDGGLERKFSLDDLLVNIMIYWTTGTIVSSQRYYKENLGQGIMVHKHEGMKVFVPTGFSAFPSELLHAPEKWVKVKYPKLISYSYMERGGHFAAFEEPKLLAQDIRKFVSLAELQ
In words: EO elimination in rat liver microsomes. It counts as in vitro ADME, Fischer 344 rats. To be noted: native pooled rat liver microsomes vs heat-inactivated, 5 mg protein/ml. On the technique in general: Liver microsomes are vesicles of endoplasmic reticulum, rich in cytochrome P450 enzymes.

Data set [5] deals with T1, epoxide hydrolase (EH). In words: EO elimination in rat lung microsomes. The format is in vitro ADME, Fischer 344 rats. The following applies: native pooled rat lung microsomes vs heat-inactivated, 5 mg protein/ml.
Data set [6] in a line: Nonenzymatic conjugation with GSH. It counts as physicochemical. The following applies: GSH 15 mmol/l, 37°C, pH 7.4.
Data set [7] in a line: Spontaneous. The format is physicochemical. The following applies: MgCl2 containing potassium phosphate buffer pH 7.4, 37°C.
In data set [8] the test system is glutathione S-transferase (GST). In words: GST-mediated EO elimination in human liver cytosol. It counts as in vitro ADME. The following applies: human pooled liver cytosol; taking a Km of 9 mmol/l.
The conditions of data set [9]: mouse; ref Dunkelberg, 1981; National Toxicology Program, 1987; cited from earlier work.
Data set [10] deals with T2, epoxide hydrolase (EH) (Homo sapiens, UniProt P07099).
T2 sequence (P07099 1-455): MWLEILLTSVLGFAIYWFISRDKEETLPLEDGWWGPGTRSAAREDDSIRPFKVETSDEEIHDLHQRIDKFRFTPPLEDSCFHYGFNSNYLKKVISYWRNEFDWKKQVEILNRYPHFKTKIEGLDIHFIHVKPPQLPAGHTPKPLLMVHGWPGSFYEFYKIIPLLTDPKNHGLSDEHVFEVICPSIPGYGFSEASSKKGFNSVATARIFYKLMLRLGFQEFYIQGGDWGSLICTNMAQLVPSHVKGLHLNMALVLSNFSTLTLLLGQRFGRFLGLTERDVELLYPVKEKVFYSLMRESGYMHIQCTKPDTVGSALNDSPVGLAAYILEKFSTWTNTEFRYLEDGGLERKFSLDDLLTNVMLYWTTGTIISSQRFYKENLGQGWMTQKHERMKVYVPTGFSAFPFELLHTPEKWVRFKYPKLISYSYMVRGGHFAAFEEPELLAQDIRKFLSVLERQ
Briefly: EO elimination in human liver microsomes. To be noted: pooled native human liver microsomes, best fit (Berkeley Madonna).

Data set [11] concerns the target T3, epoxide hydrolase (EH) (Mus musculus, UniProt Q9D379).
T3 sequence (Q9D379 1-455): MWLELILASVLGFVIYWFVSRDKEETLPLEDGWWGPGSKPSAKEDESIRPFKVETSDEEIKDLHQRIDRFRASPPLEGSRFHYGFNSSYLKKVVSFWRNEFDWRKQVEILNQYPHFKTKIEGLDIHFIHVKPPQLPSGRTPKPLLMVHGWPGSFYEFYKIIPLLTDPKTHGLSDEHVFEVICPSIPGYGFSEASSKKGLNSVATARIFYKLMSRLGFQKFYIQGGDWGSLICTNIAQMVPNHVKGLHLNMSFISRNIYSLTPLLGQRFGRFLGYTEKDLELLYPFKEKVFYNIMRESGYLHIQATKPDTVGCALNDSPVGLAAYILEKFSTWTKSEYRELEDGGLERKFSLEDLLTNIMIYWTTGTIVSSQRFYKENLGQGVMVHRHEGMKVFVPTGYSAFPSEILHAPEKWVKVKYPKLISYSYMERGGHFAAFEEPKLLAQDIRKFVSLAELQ
Briefly: EO elimination in mouse lung microsomes. The format is in vitro ADME, B6C3F1 mice. The following applies: native pooled mouse lung microsomes vs heat-inactivated, 5 mg protein/ml.

For data set [12] the following is noted: calculated from the data of ref Brown et al. (1996); cited from earlier work.
In data set [13] the test system is glutathione S-transferase (GST). In words: GST-mediated EO elimination in rat liver cytosol. It counts as in vitro ADME, Fischer 344 rats. The following applies: rat pooled liver cytosol; taking a Km of 9 mmol/l.
For data set [14] the test system is unchanged. Briefly: GST-mediated EO elimination in mouse liver cytosol. The format is in vitro ADME, B6C3F1 mice. The following applies: mouse pooled liver cytosol; taking a Km of 9 mmol/l.
In data set [15] the target is T3, epoxide hydrolase (EH). In words: EO elimination in mouse liver microsomes. The format is in vitro ADME, B6C3F1 mice. To be noted: native pooled mouse liver microsomes vs heat-inactivated, 5 mg protein/ml.
For data set [16] the following is noted: rat; ref Dunkelberg, 1982; Garman et al., 1985; Snellings et al., 1984; cited from earlier work.
Data set [17] relates to CYP450. In words: EO incubation in pooled rat liver microsomes with NADPH-regenerating system. The format is in vitro ADME, Fischer 344 rats. To be noted: rat liver microsomal incubation with NADPH-regenerating system.
For data set [18] the following is noted: humans; ref IARC (1994b); cited from earlier work.

For the compound `C1CO1` [EO, ethylene oxide], in [1], the “GSH levels in the livers” value is reported as “less than 20 % of the control value”. Further, the “Vmax of GST-mediated GSH conjugation with EO” value in [2] amounted to 16.0 nmol/min/mg protein; in [3], 56.9 nmol/min/mg protein; in data set [8], 10.3 nmol/min/mg protein; in [13], 47.7 nmol/min/mg protein; in data set [14], 251 nmol/min/mg protein. The “EH-catalyzed EO elimination” value in data set [4] is recorded as “not detectable; also recorded: no EH-catalyzed EO elimination was found”; in data set [5], “no EH-catalyzed EO elimination was found”; in data set [11], “no EH-catalyzed EO elimination was found”; in data set [15], “not detectable; also recorded: no EH-catalyzed EO elimination was found”. Besides, the “mean half-life of nonenzymatic conjugation with GSH” value in data set [6] was 3.7 h. The “mean half-life of spontaneous hydrolysis” value in data set [7] was found to be 12.4 h. The “rate constant of the spontaneous hydrolysis” value in [7] (mean ± SE, n = 36) amounted to 0.00093 ± 7e-05 min⁻¹. In addition, the carcinogenicity result in data set [9] and in [16] was “carcinogenic” throughout. In addition, in data set [10], the “Vmax of EO elimination” value is listed as 14.35 nmol/min/mg protein. The “rate constant of the nonenzymatic elimination” value in [12] is 0.001 min⁻¹. Moreover, in data set [17], the “CYP-mediated EO elimination” value is recorded as “no CYP-mediated EO elimination was detected”. The IARC evaluation result in [18] was “carcinogenic to humans”.
